Test results taken from patent US12364764B2, “Sustained release thermosetting gels comprising sodium channel blockers and the methods of making same” (Pacira Therapeutics, Inc., priority 2019, dated 2025).

Experiment: Measured drug load / API content of funapide gel formulations
Assay type: physicochemical

For O=C1N(Cc2ccc(C(F)(F)F)o2)c2ccccc2[C@]12COc1cc3c(cc12)OCO3 [funapide], which “drug concentration that can be loaded within the thermosensitive hydrogel formulation” value is on record?
The value was “up to 20 mg/mL”.
